# According to patent US10028961B2, “Therapeutically active compounds and their methods of use” (AGIOS PHARMACEUTICALS, INC., priority 2013, dated 2018):
# Biological target: IDH1 wt/IDH1 R132H heterodimer (Homo sapiens (Human), UniProt O75874, R132H)
# Experiment: In vitro assay for IDH1m R132H inhibitors, IDH1 wt/IDH1 R132H heterodimer, NADPH depletion (diaphorase/resazurin)
# Assay type: biochemical
# Conditions: IDH1 wt/IDH1 R132H heterodimer, 300 μM NADP (saturated); read-out: IDH1 wt/R132H NADPH/NADP IC50 saturated
# Experimental: The following describes the experimental procedures that can be used to obtain data on columns 2 and 4 of Table 4 and column 2 of Table 5.
# In the primary reaction, the reduction of α-KG acid to 2-HG is accompanied by a concomitant oxidation of NADPH to NADP. The amount of NADPH remaining at the end of the reaction time is measured in a secondary diaphorase/resazurin reaction in which the NADPH is consumed in a 1:1 molar ratio with the conversion of resazurin to the highly fluorescent resorufin.
# The mixture of compound, enzyme, and cofactor is pre-incubated at room temperature for 1 hr prior to the addition of alpha-ketoglutarate. To perform the secondary reaction, 10 uL of 1× buffer containing 36 μg/ml diaphorase and […] resazurin is added to the primary reaction and incubated for a further 5 minutes at 25° C. […] Compounds or compound dilutions are prepared in 100% DMSO concentration and diluted 1:50 into the final reaction. […] IC50s are determined.
# IDH1 or IDH2 wildtype (wt) and mutant heterodimers are expressed and purified by methods known in the art. […] Co-expression of IDH1wt-his and IDH1R132C-flag is carried out in sf9 insect cells. Cells (25 g) are resuspended in 250 ml of 50 mM Tirs, 500 mM NaCl, pH7.4, at 4° C. with stirring. Cells are disrupted with 4 passes through an M-Y110 Micro fluidizer (Microfluidics) set to 500 psi, and then centrifuged at 22,000 rcf for 20 min at 4° C. The supernatant is harvested and loaded at 15 cm/h on a Histrap FF 5*1 ml column (GE) which is equilibrated with 50 mM Tirs, 500 mM NaCl, pH7.4. Host cell contaminants are removed by washing the column with equilibration buffer followed by equilibration buffer containing 20 mM imidazole and 60 mM imidazole to baseline. IDH1wt-his homodimer and IDH1wt-his/IDH1R132C-flag are eluted by equilibration buffer containing 250 mM imidazole. Fractions eluted by 250 mM imidazole are pooled together and loaded at 15 cm/h onto a column pre-packed with 10 ml ANTI-FLAG® M2 Affinity Gel (Sigma), the column is equilibrated with 50 mM Tris, 500 mM NaCl, pH7.4. After washing with equilibration buffer, IDH1wt-his/IDH1R132C-flag heterodimer is eluted by equilibration buffer containing flag peptide (0.2 mg/ml). Aliquots of IDH1wt-his/IDH1R132C-flag are flash frozen in liquid N2 and stored at −80° C. Same conditions are used for the purification of IDH1wt-his/IDH1R132H-flag.
# Sequence of IDH1 wt/IDH1 R132H heterodimer (O75874 whole entry R132H): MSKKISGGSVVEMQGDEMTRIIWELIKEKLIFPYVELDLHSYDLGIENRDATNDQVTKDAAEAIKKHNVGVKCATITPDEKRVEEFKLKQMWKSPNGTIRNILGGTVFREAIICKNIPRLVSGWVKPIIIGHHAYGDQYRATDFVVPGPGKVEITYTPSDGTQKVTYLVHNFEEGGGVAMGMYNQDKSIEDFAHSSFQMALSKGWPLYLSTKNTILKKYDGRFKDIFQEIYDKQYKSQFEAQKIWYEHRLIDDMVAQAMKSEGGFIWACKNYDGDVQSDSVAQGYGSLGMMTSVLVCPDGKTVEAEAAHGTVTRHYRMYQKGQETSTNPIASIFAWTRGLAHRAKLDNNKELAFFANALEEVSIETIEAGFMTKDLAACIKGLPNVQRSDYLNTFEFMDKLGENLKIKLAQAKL
# Sequence of IDH1 wt/IDH1 R132H heterodimer (O75874 whole entry, stated change not applied): as the sequence (O75874 whole entry R132H) above, with H132R counted along it
row,IC50,SMILES
1,50 to 100 nM,N#CC1(c2cc(Nc3nc(NCC4CC4(F)F)nc(-c4cccc(C(F)(F)F)n4)n3)ccn2)CC1 (stereo not drawn) [Compound 362]

# Same assay, conditions: IDH1 wt/R132H heterodimer, NADPH/NADP, not saturated
row,IDH1 wt/R132H NADPH/NADP IC50 not saturated,SMILES
1,No Fit,C[C@@H](Nc1nc(N[C@H](C)C2CC2)nc(-c2ccc(Cl)cc2)n1)C1CC1 [Compound 65]

# Same assay, conditions: IDH1 wt/R132H heterodimer, NADPH/NADP, not saturated; read-out: IDH1 wt/R132H NADPH/NADP IC50 not saturated
row,IC50,SMILES
1,< 50 nM,COCCC(C)Nc1nc(N[C@H](C)C2CC2)nc(-c2cccc(C(F)(F)F)n2)n1 (stereo partly drawn) [Compound 233]
2,100 to 1000 nM,COC(=O)CCNc1nc(N[C@H](C)C2CC2)nc(-c2cccc(C(F)(F)F)n2)n1 [Compound 286]
3,< 50 nM,C=Cc1cccc(-c2nc(N[C@H](C)C3CC3)nc(N[C@H](C)C3CC3)n2)n1 [Compound 240]
4,100 to 1000 nM,FC1(F)CC(Nc2nc(NC3CC(F)(F)C3)nc(-c3cccc(OC(F)(F)F)n3)n2)C1 [Compound 277]
5,> 1000 nM,FC1(F)CCC(Nc2nc(NC3CCC(F)(F)CC3)nc(-c3cc(Cl)ccn3)n2)CC1 [Compound 314]
6,> 1000 nM,C[C@@H](Nc1nc(N[C@H](C)C2CC2)nc(-c2cccc(O)n2)n1)C1CC1 [Compound 327]
7,100 to 1000 nM,COc1cccc(-c2nc(N[C@H](C)C3CC3)nc(N[C@H](C)C3CC3)n2)n1 [Compound 294]
8,> 1000 nM,Cc1cc(-c2nc(NC3CCC(F)(F)CC3)nc(NC3CCC(F)(F)CC3)n2)no1 [Compound 329]
9,> 1000 nM,C[C@@H](Nc1nc(N[C@H](C)C2CC2)nc(-c2cccc(OC(F)(F)F)c2)n1)C1CC1 [Compound 322]
10,> 1000 nM,CC(CN1CCCCC1)Nc1nc(N[C@H](C)C2CC2)nc(-c2cccc(C(F)(F)F)n2)n1 (stereo partly drawn) [Compound 331]
11,> 1000 nM,C[C@@H](Nc1nc(N[C@H](C)C2CC2)nc(-c2ccccn2)n1)C1CC1 [Compound 93]
12,> 1000 nM,FC1(F)CCC(Nc2nc(NC3CCC(F)(F)CC3)nc(-c3ccn[nH]3)n2)CC1 [Compound 330]
13,100 to 1000 nM,C[C@@H](Nc1nc(N[C@H](C)C2CC2)nc(-c2cccc(C#N)n2)n1)C1CC1 [Compound 269]
14,100 to 1000 nM,Cc1cccc(-c2nc(NC3CCC(F)(F)CC3)nc(NC3CCC(F)(F)CC3)n2)n1 [Compound 282]
15,50 to 100 nM,CC(C)Nc1nc(NC2CCCCC2)nc(-c2ccncc2)n1 [Compound 62]
16,< 50 nM,C[C@@H](Nc1nc(NC2Cc3ccccc3C2)nc(-c2cccc(C(F)(F)F)n2)n1)C1CC1 [Compound 60]
17,> 1000 nM,C[C@@H](Nc1nc(N[C@H](C)C2CC2)nc(-c2ccncc2)n1)C1CC1 [Compound 95]
18,100 to 1000 nM,OC1CCCC1Nc1nc(NC2CCCC2O)nc(-c2cccc(Cl)n2)n1 (stereo not drawn) [Compound 290]
19,> 1000 nM,COC(=O)c1cccc(-c2nc(N[C@H](C)C3CC3)nc(N[C@H](C)C3CC3)n2)n1 [Compound 310]
20,50 to 100 nM,C[C@@H](Nc1nc(N[C@H](C)C2CC2)nc(-c2cccc(Cl)c2)n1)C1CC1 [Compound 64]

row,IC50,SMILES
1,100 to 1000 nM,C[C@H](CO)Nc1nc(N[C@H](C)C2CC2)nc(-c2cccc(C(F)(F)F)n2)n1 [Compound 281]
2,> 1000 nM,Cc1nc(-c2nc(NC3CCC(F)(F)CC3)nc(NC3CCC(F)(F)CC3)n2)co1 [Compound 324]
3,> 1000 nM,Cn1ccc(-c2nc(NC3CCC(F)(F)CC3)nc(NC3CCC(F)(F)CC3)n2)n1 [Compound 304]
4,< 50 nM,COC(=O)N1CCC(Nc2nc(NC3CCC(F)(F)C3)nc(-c3cccc(C(F)(F)F)n3)n2)C1 (stereo not drawn) [Compound 59]
5,> 1000 nM,Cc1cnn(-c2nc(N[C@H](C)C3CC3)nc(N[C@H](C)C3CC3)n2)c1 [Compound 312]
6,> 1000 nM,C[C@@H](Nc1nc(N[C@H](C)C2CC2)nc(-c2ccccc2Cl)n1)C1CC1 [Compound 94]
7,> 1000 nM,CC(CN1CCOCC1)Nc1nc(N[C@H](C)C2CC2)nc(-c2cccc(C(F)(F)F)n2)n1 (stereo partly drawn) [Compound 306]
8,100 to 1000 nM,C[C@@H](Nc1nc(N[C@H](C)C2CC2)nc(-c2cncc(C(F)(F)F)c2)n1)C1CC1 [Compound 300]
9,> 1000 nM,Fc1ccc(N2CC(Nc3nc(NC4CCC(F)(F)C4)nc(-c4cccc(C(F)(F)F)n4)n3)C2)cc1 (stereo not drawn) [Compound 313]
10,> 1000 nM,C[C@@H](Nc1nc(N[C@H](C)C2CC2)nc(-c2cccc(C(N)=O)n2)n1)C1CC1 [Compound 307]
11,> 1000 nM,Cn1c(Nc2nc(NC3CCC(F)(F)C3)nc(-c3cccc(C(F)(F)F)n3)n2)cc2ccccc21 (stereo not drawn) [Compound 316]
12,> 1000 nM,C[C@@H](Nc1nc(NCC(C)(C)C(N)=O)nc(-c2cccc(C(F)(F)F)n2)n1)C1CC1 [Compound 303]
13,> 1000 nM,C[C@@H](Nc1nc(N[C@H](C)C2CC2)nc(-c2cccc(C#N)c2)n1)C1CC1 [Compound 320]
14,> 1000 nM,C[C@@H](Nc1nc(N[C@H](C)C2CC2)nc(-c2ccnc(C(F)(F)F)c2)n1)C1CC1 [Compound 323]
15,> 1000 nM,CN1CCC(Nc2nc(NC3CCC(F)(F)C3)nc(-c3cccc(C(F)(F)F)n3)n2)C1 (stereo not drawn) [Compound 96]
16,100 to 1000 nM,FC1(F)CCC(Nc2nc(Nc3cc4ccccc4[nH]3)nc(-c3cccc(C(F)(F)F)n3)n2)C1 (stereo not drawn) [Compound 291]
17,100 to 1000 nM,C#CCNc1nc(N[C@H](C)C2CC2)nc(-c2cccc(C(F)(F)F)n2)n1 [Compound 284]
18,100 to 1000 nM,COCCOCC(C)Nc1nc(N[C@H](C)C2CC2)nc(-c2cccc(C(F)(F)F)n2)n1 (stereo partly drawn) [Compound 295]
19,50 to 100 nM,COCC(COC)Nc1nc(N[C@H](C)C2CC2)nc(-c2cccc(C(F)(F)F)n2)n1 [Compound 63]
20,100 to 1000 nM,Fc1ccc([C@H]2C[C@H](Nc3nc(N[C@H]4C[C@H](c5ccc(F)cc5)C4)nc(-c4cccc(C(F)(F)F)n4)n3)C2)cc1 [Compound 299]

# Biological target: IDH2 R140Q (Homo sapiens (Human), UniProt P48735, R140Q)
# Experiment: In vitro assay for IDH2m R140Q inhibitors, cofactor depletion assay
# Assay type: biochemical
# Conditions: IDH2 R140Q enzyme
# From the text: The following describes the experimental procedures used to obtain data on column 7 of Table 4.
# The reaction is terminated by the addition of a second enzyme, diaphorase, and a corresponding substrate, resazurin. Diaphorase reduces resazurin to the highly fluorescent resorufin with the concomitant oxidation of NADPH to NADP, both halting the IDH2 reaction by depleting the available cofactor pool and facilitating quantitation of the amount of cofactor remaining after a specific time period through quantitative production of an easily detected fluorophore.
# The test compound is then incubated for one hour at room temperature with the enzyme; before starting the IDH2 reaction with the addition of 10 μl of substrate mix containing 4 μM NADPH and 1.6 mM α-KG in the buffer described above. After a further 16 hours of incubation at room temperature, the reaction is halted and the remaining NADPH measured through conversion of resazurin to resorufin by the addition of 25 μl Stop Mix (36 μg/ml diaphorase enzyme and 60 μM resazurin; in buffer).
# Sequence of IDH2 R140Q (P48735 40-452 R140Q): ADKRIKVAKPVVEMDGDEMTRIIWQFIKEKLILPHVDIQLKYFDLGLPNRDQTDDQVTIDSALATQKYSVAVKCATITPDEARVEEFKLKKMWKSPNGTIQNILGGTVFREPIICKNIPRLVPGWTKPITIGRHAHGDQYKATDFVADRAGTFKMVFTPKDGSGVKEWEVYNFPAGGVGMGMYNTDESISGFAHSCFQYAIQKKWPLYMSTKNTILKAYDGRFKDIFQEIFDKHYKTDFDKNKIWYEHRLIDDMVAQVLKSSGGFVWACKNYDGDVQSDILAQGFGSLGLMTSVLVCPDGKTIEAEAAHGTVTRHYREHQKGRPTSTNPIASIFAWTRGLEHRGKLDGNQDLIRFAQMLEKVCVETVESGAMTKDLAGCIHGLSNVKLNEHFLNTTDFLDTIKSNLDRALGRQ
row,IC50,SMILES
1,50 to 100 nM,FC1(F)CC(Nc2nc(NC3CC(F)(F)C3)nc(-c3cccc(OC(F)(F)F)n3)n2)C1 [Compound 277]
2,< 50 nM,FC1(F)CC2(CC(Nc3nc(Nc4ccnc(C(F)(F)F)c4)nc(-c4cccc(C(F)(F)F)n4)n3)C2)C1 [Compound 257]
3,> 1000 nM,CN1CCC(Nc2nc(NC3CCC(F)(F)C3)nc(-c3cccc(C(F)(F)F)n3)n2)C1 (stereo not drawn) [Compound 326]
4,50 to 100 nM,CC(C)CNc1nc(NC2CCOCC2)nc(-c2cccc(C(F)(F)F)n2)n1 [Compound 75]
5,< 50 nM,N#CC1(c2cc(Nc3nc(NCC4CC4(F)F)nc(-c4cccc(C(F)(F)F)n4)n3)ccn2)CC1 (stereo not drawn) [Compound 362]
6,< 50 nM,"CC(C)CNc1nc(NCC(C)C)nc(-c2cccc(N)n2)n1 [Compound 74, 6-(6-aminopyridin-2-yl)-N^2,N^4-diisobutyl-1,3,5-triazine-2,4-diamine]"
7,< 50 nM,"CC(C)(C)CNc1nc(NCC(C)(C)C)nc(-c2cccc(N)n2)n1 [Compound 73, 6-(6-aminopyridin-2-yl)-N^2,N^4-dineopentyl-1,3,5-triazine-2,4-diamine]"
8,> 1000 nM,"Clc1cccc(-c2nc(NC3[C@H]4COC[C@@H]34)nc(NC3[C@H]4COC[C@@H]34)n2)n1 (stereo partly drawn) [Compound 72, N^2,N^4-di((1R,5S)-3-oxabicyclo[3.1.0]hexan-6-yl)-6-(6-chloropyridin-2-yl)-1,3,5-triazine-2,4-diamine]"

# System: U87MG pLVX-IDH2 R140Q-neo cells
# Experiment: U87MG pLVX-IDH2 R140Q-neo cell based assay, 2-HG by LC-MS
# Conditions: Homo sapiens, U-87 MG
row,IC50,SMILES
1,50 to 100 nM,FC1(F)CC(Nc2nc(NC3CC(F)(F)C3)nc(-c3cccc(OC(F)(F)F)n3)n2)C1 [Compound 277]
2,50 to 100 nM,c1ccc(-c2nc(NC3C4COCC43)nc(NC3C4COCC43)n2)cc1 (stereo not drawn) [Compound 71]
3,< 50 nM,FC1(F)CC2(CC(Nc3nc(Nc4ccnc(C(F)(F)F)c4)nc(-c4cccc(C(F)(F)F)n4)n3)C2)C1 [Compound 257]
4,> 1000 nM,CN1CCC(Nc2nc(NC3CCC(F)(F)C3)nc(-c3cccc(C(F)(F)F)n3)n2)C1 (stereo not drawn) [Compound 326]
5,< 50 nM,CC(C)CNc1nc(NC2CCOCC2)nc(-c2cccc(C(F)(F)F)n2)n1 [Compound 75]
6,50 to 100 nM,C=CCCNc1nc(NCCC=C)nc(-c2ccccc2)n1 [Compound 70]
7,50 to 100 nM,"CC(C)CNc1nc(NCC(C)C)nc(-c2cccc(N)n2)n1 [Compound 74, 6-(6-aminopyridin-2-yl)-N^2,N^4-diisobutyl-1,3,5-triazine-2,4-diamine]"
8,100 to 1000 nM,"CC(C)Nc1nc(NC2CCCOC2)nc(-c2ccccc2)n1 (stereo not drawn) [Compound 69, N^2-isopropyl-6-phenyl-N^4-(tetrahydro-2H-pyran-3-yl)-1,3,5-triazine-2,4-diamine]"
9,50 to 100 nM,"CC(C)(C)CNc1nc(NCC(C)(C)C)nc(-c2cccc(N)n2)n1 [Compound 73, 6-(6-aminopyridin-2-yl)-N^2,N^4-dineopentyl-1,3,5-triazine-2,4-diamine]"
10,50 to 100 nM,"Clc1cccc(-c2nc(NC3[C@H]4COC[C@@H]34)nc(NC3[C@H]4COC[C@@H]34)n2)n1 (stereo partly drawn) [Compound 72, N^2,N^4-di((1R,5S)-3-oxabicyclo[3.1.0]hexan-6-yl)-6-(6-chloropyridin-2-yl)-1,3,5-triazine-2,4-diamine]"
